Test results reported in the supplement of paper PMC11061612.

Columns and labels:
[1] = test system: KYSE-140 (Esophageal Squamous Cell Carcinoma); assay: Bliss excess, mean over the matrix (fraction); higher = more synergy
Outline: (§1)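 Cell lines in DMEM/F12 or RPMI with 10% FBS were plated in 1536-well plates, held 24 hours at 37°C, 5% CO2, then given two-drug dose matrices for 72 hours (DMSO typically 0.2%). Viability was read by CellTiter-Glo 2.0 luminescence and scaled as inhibition from 0 (vehicle wells) to 1 (blank wells). Combination Emax is the second-highest inhibition in the matrix; Bliss excess is observed combination effect minus expected EA + EB − EA·EB, EA and EB being single-agent effects.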

[2] = test system: G-402 (Other Solid Carcinomas); assay: as above
Outline: as §1

[3] = test system: CESS (Acute Myeloid Leukemia); assay: as above
Outline: as §1

[4] = test system: LS-411N (Colorectal Carcinoma); assay: as above
Outline: as §1

[5] = test system: NB13 (Neuroblastoma); assay: as above
Outline: as §1

[6] = test system: A204 (Rhabdomyosarcoma); assay: as above
Outline: as §1

[7] = test system: EPLC-272H (Other Solid Carcinomas); assay: as above
Outline: as §1

[8] = test system: JVM-2 (B-Cell Non-Hodgkin's Lymphoma); assay: as above
Outline: as §1

[9] = test system: TE-10 (Esophageal Squamous Cell Carcinoma); assay: as above
Outline: as §1

[10] = test system: A253 (Head and Neck Carcinoma); assay: as above
Outline: as §1

[11] = test system: GCT (Other Solid Carcinomas); assay: as above
Outline: as §1

[12] = test system: MKN1 (Gastric Carcinoma); assay: as above
Outline: as §1

[13] = test system: NCI-H841 (Small Cell Lung Carcinoma); assay: as above
Outline: as §1

[14] = test system: MKN1 (Gastric Carcinoma); assay: combination Emax (second highest fraction inhibited in the dose matrix, 72 h); higher = more inhibition; extreme values may be limits of the assay
Outline: as §1

[15] = test system: NCI-H841 (Small Cell Lung Carcinoma); assay: as above
Outline: as §1

[16] = test system: KP-N-YN (Neuroblastoma); assay: as above
Outline: as §1
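For Bliss excess, mean over the matrix in this document: after 72 h of two-drug dosing.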

| Compound | Bliss excess [1] | Bliss excess [2] | Bliss excess [3] | Bliss excess [4] | Bliss excess [5] | Bliss excess [6] | Bliss excess [7] | Bliss excess [8] | Bliss excess [9] | Bliss excess [10] | Bliss excess [11] | Bliss excess [12] | Bliss excess [13] | combination Emax [14] | combination Emax [15] | combination Emax [16] |
| --- | --- | --- | --- | --- | --- | --- | --- | --- | --- | --- | --- | --- | --- | --- | --- | --- |
| CN(CCO)CC[C@H](CSc1ccccc1)Nc1ccc(S(=O)(=O)NC(=O)c2ccc(N3CCC([C@@H](O)c4ccccc4-c4ccc(Cl)cc4)CC3)cc2)cc1S(=O)(=O)C(F)(F)F [AZD4320] + C1CN(CCC1(C(=O)N[C@@H](CCO)C2=CC=C(C=C2)Cl)N)C3=NC=NC4=C3C=CN4 [Capivasertib] (first compound max 1 µM, 7x7, partner max 3 µM) | -0.0432 | -0.0262 | 0.0517 | -0.048 | 0.0174 | -0.0393 | -0.0089 | -0.0068 | -0.0212 | -0.0035 | -0.021 |  |  |  |  |  |
| CN(CCO)CC[C@H](CSc1ccccc1)Nc1ccc(S(=O)(=O)NC(=O)c2ccc(N3CCC([C@@H](O)c4ccccc4-c4ccc(Cl)cc4)CC3)cc2)cc1S(=O)(=O)C(F)(F)F [AZD4320] + C=CCn1c(=O)c2cnc(Nc3ccc(N4CCN(C)CC4)cc3)nc2n1-c1cccc(C(C)(C)O)n1 [AZD1775] (first compound max 1 µM, partner max 1 µM) | -0.0161 | -0.0345 | 0.0873 | 0.0549 | 0.0475 | -0.0304 | -0.0069 | 0.0965 | -0.0084 | 0.0503 | -0.0363 |  |  |  |  |  |
| CN(CCO)CC[C@H](CSc1ccccc1)Nc1ccc(S(=O)(=O)NC(=O)c2ccc(N3CCC([C@@H](O)c4ccccc4-c4ccc(Cl)cc4)CC3)cc2)cc1S(=O)(=O)C(F)(F)F [AZD4320] + CC(=O)O[C@H]1C(=O)[C@@]2(C)[C@H]([C@H](OC(=O)c3ccccc3)[C@]3(O)C[C@H](OC(=O)[C@H](O)[C@@H](NC(=O)c4ccccc4)c4ccccc4)C(C)=C1C3(C)C)[C@]1(OC(C)=O)CO[C@@H]1C[C@@H]2O [Paclitaxel] (first compound max 1 µM, 7x7, partner max 3 µM) |  |  |  |  |  |  |  |  |  |  |  | 0.0566 | 0.0423 | 0.91 | 0.968 |  |
| CN(CCO)CC[C@H](CSc1ccccc1)Nc1ccc(S(=O)(=O)NC(=O)c2ccc(N3CCC([C@@H](O)c4ccccc4-c4ccc(Cl)cc4)CC3)cc2)cc1S(=O)(=O)C(F)(F)F [AZD4320] + CCN(CCO)CCCOc1ccc2c(Nc3cc(CC(=O)Nc4cccc(F)c4)[nH]n3)ncnc2c1 [AZD2811] (first compound max 1 µM, 7x7, partner max 1 µM) | 0.0082 | 0.0415 | 0.164 | 0.0119 | 0.0975 | -0.0553 | 0.0873 | 0.0677 | 0.038 | 0.0364 | -0.0089 |  |  |  |  |  |
| CN(CCO)CC[C@H](CSc1ccccc1)Nc1ccc(S(=O)(=O)NC(=O)c2ccc(N3CCC([C@@H](O)c4ccccc4-c4ccc(Cl)cc4)CC3)cc2)cc1S(=O)(=O)C(F)(F)F [AZD4320] + C[C@@H]1COCCN1C2=NC(=NC(=C2)C3(CC3)[S@](=N)(=O)C)C4=C5C=CNC5=NC=C4 [AZD6738] (first compound max 1 µM, 7x7, partner max 10 µM) | -0.0299 | -0.0805 | 0.02 | 0.0135 | -0.0167 | -0.0207 | -0.0244 | 0.0102 | -0.0265 | 0.0045 | -0.0313 |  |  |  |  |  |
| CN(CCO)CC[C@H](CSc1ccccc1)Nc1ccc(S(=O)(=O)NC(=O)c2ccc(N3CCC([C@@H](O)c4ccccc4-c4ccc(Cl)cc4)CC3)cc2)cc1S(=O)(=O)C(F)(F)F [AZD4320] + Nc1ccn([C@@H]2O[C@H](CO)[C@@H](O)C2(F)F)c(=O)n1 [Gemcitabine] (first compound max 1 µM, 7x7, partner max 0.3 µM) |  |  |  |  | 0.0074 |  |  |  |  |  |  | 0.0005 | -0.0317 | 0.759 | 0.322 |  |
| COc1nnc2ccc(N3CCC(c4ccc(OCCN5CCN(C)C(=O)[C@H]5C)cc4)CC3)nn12 [AZD5153] + CN(CC[C@H](CSC1=CC=CC=C1)NC2=C(C=C(C=C2)S(=O)(=O)NC(=O)C3=CC=C(C=C3)N4CCC(CC4)[C@H](C5=CC=CC=C5C6=CC=C(C=C6)Cl)O)S(=O)(=O)C(F)(F)F)CCO [AZD4320] (first compound max 1 µM, 7x7, partner max 1 µM) | 0.0588 | 0.0157 | 0.0356 | 0.0969 |  | 0.0084 | -0.04 | 0.0973 |  | 0.0043 | 0.0204 |  |  |  |  |  |
| Cc1cc2ncnn2cc1Nc1ncc2c(n1)n(C1CCOCC1)c(=O)n2C [AZD7648] + COc1cc([C@@H]2c3cc4c(cc3[C@@H](O[C@@H]3O[C@@H]5CO[C@@H](C)O[C@H]5[C@H](O)[C@H]3O)[C@H]3COC(=O)[C@H]23)OCO4)cc(OC)c1O [Etoposide] (first compound max 10 µM, 7x7, partner max 10 µM) |  |  |  |  | -0.0803 |  |  |  |  |  |  | 0.0865 | 0.0261 | 0.922 | 0.441 | 0.677 |
| Cc1nc(Nc2ncc(C(=O)Nc3c(C)cccc3Cl)s2)cc(N2CCN(CCO)CC2)n1 [Dasatinib] + CC(=O)Nc1cccc(-n2c(=O)n(C3CC3)c(=O)c3c(Nc4ccc(I)cc4F)n(C)c(=O)c(C)c32)c1 [Trametinib] (first compound max 2 µM, 7x7, partner max 1 µM) | -0.132 | -0.0618 | -0.0622 | 0.0509 | -0.0347 | -0.0955 | -0.0746 | -0.0158 |  | -0.189 | -0.119 | -0.0121 | -0.0356 | 0.656 | 0.199 | 0.361 |
| COc1cc2ncnc(Nc3ccc(F)c(Cl)c3)c2cc1OCCCN1CCOCC1 [Gefitinib] + CC(C)n1c(=O)n(C)c2cnc3cc(F)c(-c4ccc(OCCCN5CCCCC5)nc4)cc3c21 [AZD1390] (first compound max 10 µM, 7x7, partner max 0.3 µM) | -0.0919 | -0.0659 | -0.0386 | -0.0463 | -0.0433 | -0.0563 | -0.0207 | -0.0645 |  | -0.0551 | -0.065 | -0.0669 | -0.0837 | 0.339 | 0.176 | 0.318 |
| CC(=O)c1c(C)c2cnc(Nc3ccc(N4CCNCC4)cn3)nc2n(C2CCCC2)c1=O [Palbociclib] + CN(CC[C@H](CSC1=CC=CC=C1)NC2=C(C=C(C=C2)S(=O)(=O)NC(=O)C3=CC=C(C=C3)N4CCC(CC4)[C@H](C5=CC=CC=C5C6=CC=C(C=C6)Cl)O)S(=O)(=O)C(F)(F)F)CCO [AZD4320] (first compound max 10 µM, 7x7, partner max 1 µM) | -0.0355 | -0.0503 | -0.0225 | -0.0089 |  | -0.0397 | -0.0283 | -0.0143 |  | -0.101 | -0.0137 |  |  |  |  |  |
| N#Cc1cnc(Nc2cc(NC[C@H]3CNCCO3)c(C(F)(F)F)cn2)cn1 [SRA737] + C=CCn1c(=O)c2cnc(Nc3ccc(N4CCN(C)CC4)cc3)nc2n1-c1cccc(C(C)(C)O)n1 [AZD1775] (first compound max 10 µM, partner max 1 µM) |  |  |  |  | 0.0322 |  |  |  |  |  |  | 0.0971 | 0.0292 | 0.916 | 0.514 |  |
| N#Cc1cnc(Nc2cc(NC[C@H]3CNCCO3)c(C(F)(F)F)cn2)cn1 [SRA737] + CCc1c2c(nc3ccc(O)cc13)-c1cc3c(c(=O)n1C2)COC(=O)[C@]3(O)CC [SN-38] (first compound max 10 µM, 7x7, partner max 0.3 µM) |  |  |  |  | 0.129 |  |  |  |  |  |  | 0.0303 | 0.044 | 0.866 | 0.62 |  |
| N#Cc1cnc(Nc2cc(NC[C@H]3CNCCO3)c(C(F)(F)F)cn2)cn1 [SRA737] + Nc1ccn([C@@H]2O[C@H](CO)[C@@H](O)C2(F)F)c(=O)n1 [Gemcitabine] (first compound max 10 µM, 7x7, partner max 0.3 µM) |  |  |  |  |  |  |  |  |  |  |  | 0.0588 | 0.0776 | 0.867 | 0.818 |  |
| N#Cc1cnc(Nc2cc(NC[C@H]3CNCCO3)c(C(F)(F)F)cn2)cn1 [SRA737] + O=c1[nH]cc(F)c(=O)[nH]1 [5-Fluorouracil] (first compound max 10 µM, 7x7, partner max 20 µM) |  |  |  |  | -0.0699 |  |  |  |  |  |  | 0.0221 | -0.0189 | 0.69 | 0.183 |  |
| C[C@@H](c1ccc2nccn2c1)n1nnc2ncc(-c3cnn(C)c3)nc21 [Savolitinib] + CC1(C)CCC(CN2CCN(c3ccc(C(=O)NS(=O)(=O)c4ccc(NCC5CCOCC5)c([N+](=O)[O-])c4)c(Oc4cnc5[nH]ccc5c4)c3)CC2)=C(c2ccc(Cl)cc2)C1 [Venetoclax] (first compound max 1 µM, 7x7, partner max 1 µM) | -0.0257 | -0.067 | -0.0517 | -0.0349 | -0.073 | -0.0629 | -0.0604 | -0.0472 |  | -0.0524 | -0.0727 | -0.0402 | -0.0333 | 0.0845 | 0.201 | 0.569 |
| C[C@@H](c1ccc2nccn2c1)n1nnc2ncc(-c3cnn(C)c3)nc21 [Savolitinib] + CN(CC[C@H](CSC1=CC=CC=C1)NC2=C(C=C(C=C2)S(=O)(=O)NC(=O)C3=CC=C(C=C3)N4CCC(CC4)[C@H](C5=CC=CC=C5C6=CC=C(C=C6)Cl)O)S(=O)(=O)C(F)(F)F)CCO [AZD4320] (first compound max 1 µM, 7x7, partner max 1 µM) | 0.0044 | -0.0639 | -0.001 | -0.0069 |  | -0.0484 | -0.0701 | -0.0313 |  | -0.0569 | -0.0527 |  |  |  |  |  |
| C[C@@H](c1ccc2nccn2c1)n1nnc2ncc(-c3cnn(C)c3)nc21 [Savolitinib] + Cc1c2c(nn1C)CSCc1cc(n(C)n1)CSc1cc(c3ccccc3c1)OCCCc1c(C(=O)O)n(C)c3c-2c(Cl)ccc13 [AZD5991] (first compound max 1 µM, 7x7, partner max 1 µM) | -0.0301 | -0.0611 | -0.048 | -0.0232 | -0.0206 | -0.0502 | -0.0128 | -0.021 |  | -0.0738 | -0.054 | -0.0366 | -0.0178 | 0.111 | 0.266 | 0.324 |
